# Reference: patent publication US8895585B2, “Nicotinamide derivative or salt thereof” (FUJIFILM Corporation, priority 2010, dated 2014)
# Like-named read-outs stand apart in the source and are kept apart here.
# Experiments:
# [1] = tested on: THP-1 cells; experiment: TNFα generation assay; format: cell-based, human; conditions: Homo sapiens
# How it was run: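 THP-1 cells differentiated to macrophage-like cells with 10 ng/ml IFN-γ for 2 days, preincubated with compound 30 min at room temperature, then cultured 7 h on plates coated with human IgG (10 μg/ml). Secreted TNFα measured by ELISA or AlphaLISA.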
# [2] = biological target: T1, glutathione S-transferase (GST)-fused full-length human Syk protein (Homo sapiens, UniProt P43405); experiment: Syk enzyme assay; format: biochemical
# T1 construct: (GST)-fused full-length human Syk protein; GST (glutathione S-transferase); purchased Carna Biosciences
# How it was run: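 GST-tagged full-length human Syk (baculovirus) preincubated with compound 15 min at room temperature (pH 7.0, 10 mM MgCl2), then reacted 40 min with 0.4 μM biotinylated peptide substrate and 27 μM ATP (final). Phosphorylation read by HTRF (615/665 nm) after EDTA stop; IC50 reported.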
# [3] = THP-1, THP-1 cells, Table 22, read-out: IC50 in TNFα generation assay
# [4] = Syk enzyme assay, Test Example 1, read-out: IC50 of Syk-inhibitory activity
# [5] = THP-1, 7 h, IFN-γ-differentiated THP-1 cells on human IgG-coated plate, cultured 7 hours, read-out: TNFα generation inhibitory activity (IC50)
# [6] = read-out: Syk-inhibitory activity (IC50)
"IC50 [1, 3] [nM]","IC50 [2, 4] [nM]","IC50 [1, 5] [nM]","IC50 [2, 6] [nM]",SMILES
130 to 200,< 10,,,"COc1ccc(F)c(-c2cncc(Nc3nc(N[C@@H]4CCCC[C@@H]4N)c(F)cc3C(N)=O)c2)c1 (relative stereo) [Example 004-199, 6-(cis-2-aminocyclohexylamino)-5-fluoro-2-((5-(2-fluoro-5-methoxyphenyl)pyridin-3-yl)amino)nicotinamide]"
130 to 200,< 10,,,"NC(=O)c1cc(F)c(N[C@@H]2CCCC[C@@H]2N)nc1Nc1ccc2nc(OCCN3CCOC3=O)ccc2c1 (relative stereo) [Example 004-201, 6-(cis-2-aminocyclohexylamino)-5-fluoro-2-((2-(2-(2-oxooxazolidin-3-yl)ethoxy)quinolin-6-yl)amino)nicotinamide]"
130 to 200,10 to 50,,,"NC(=O)c1cc(F)c(N[C@@H]2CCCC[C@@H]2N)nc1Nc1cncc(-c2ncccn2)c1 (relative stereo) [Example 004-214, 6-(cis-2-aminocyclohexylamino)-5-fluoro-2-((5-(pyrimidin-2-yl)pyridin-3-yl)amino)nicotinamide]"
65 to 130,< 10,,,"NC(=O)c1cc(F)c(N[C@@H]2CCCC[C@@H]2N)nc1Nc1cncc(-c2cccc([N+](=O)[O-])c2)c1 (relative stereo) [Example 004-215, 6-(cis-2-aminocyclohexylamino)-5-fluoro-2-((5-(3-nitrophenyl)pyridin-3-yl)amino)nicotinamide]"
65 to 130,< 10,,,"NC(=O)c1cc(F)c(N[C@@H]2CCCC[C@@H]2N)nc1Nc1cncc(-c2cccc(N)c2)c1 (relative stereo) [Example 004-217, 6-(cis-2-aminocyclohexylamino)-2-((5-(3-aminophenyl)pyridin-3-yl)amino)-5-fluoronicotinamide]"
65 to 130,< 10,,,"NC(=O)c1cc(F)c(N[C@@H]2CCCC[C@@H]2N)nc1Nc1cncc(-c2ccc(N)cc2)c1 (relative stereo) [Example 004-218, 6-(cis-2-aminocyclohexylamino)-2-((5-(4-aminophenyl)pyridin-3-yl)amino)-5-fluoronicotinamide]"
65 to 130,< 10,,,"CNc1cccc(-c2cncc(Nc3nc(N[C@@H]4CCCC[C@@H]4N)c(F)cc3C(N)=O)c2)c1 (relative stereo) [Example 004-219, 6-(cis-2-aminocyclohexylamino)-5-fluoro-2-((5-(3-(methylamino)phenyl)pyridin-3-yl)amino)nicotinamide]"
65 to 130,< 10,,,"CNc1ccc(-c2cncc(Nc3nc(N[C@@H]4CCCC[C@@H]4N)c(F)cc3C(N)=O)c2)cc1 (relative stereo) [Example 004-220, 6-(cis-2-aminocyclohexylamino)-5-fluoro-2-((5-(4-(methylamino)phenyl)pyridin-3-yl)amino)nicotinamide]"
130 to 200,< 10,,,"NC(=O)c1cc(F)c(N[C@@H]2CCCC[C@@H]2N)nc1Nc1cncc(-c2ccc(N3CCOCC3)cc2)c1 (relative stereo) [Example 004-222, 6-(cis-2-aminocyclohexylamino)-5-fluoro-2-((5-(4-morpholinophenyl)pyridin-3-yl)amino)nicotinamide]"
130 to 200,< 10,,,"NC(=O)c1cc(F)c(N[C@@H]2CCCC[C@@H]2N)nc1Nc1cncc(-c2ccc(N3CCCC3=O)cc2)c1 (relative stereo) [Example 004-226, 6-(cis-2-aminocyclohexylamino)-5-fluoro-2-((5-(4-(2-oxopyrrolidin-1-yl)phenyl)pyridin-3-yl)amino)nicotinamide]"
130 to 200,< 10,,,"CN(C)c1cccc(-c2cncc(Nc3nc(N[C@@H]4CCCC[C@@H]4N)c(F)cc3C(N)=O)c2)c1 (relative stereo) [Example 004-227, 6-(cis-2-aminocyclohexylamino)-2-((5-(3-(dimethylamino)phenyl)pyridin-3-yl)amino)-5-fluoronicotinamide]"
65 to 130,< 10,,,"NC(=O)c1cc(F)c(N[C@@H]2CCCC[C@@H]2N)nc1Nc1cncc(-c2nnco2)c1 (relative stereo) [Example 004-229, 2-((5-(1,3,4-oxadiazol-2-yl)pyridin-3-yl)amino)-6-((cis-2-aminocyclohexyl)amino)-5-fluoronicotinamide]"
< 65,< 10,,,"NC(=O)c1cc(F)c(N[C@@H]2CCCC[C@@H]2N)nc1Nc1ccc2ncncc2c1 (relative stereo) [Example 006-062, 6-(cis-2-aminocyclohexylamino)-5-fluoro-2-(quinazolin-6-ylamino)nicotinamide]"
130 to 200,< 10,,,"NC(=O)c1cc(F)c(N[C@@H]2CCCC[C@@H]2N)nc1Nc1cncc(-c2cc[nH]c2)c1 (relative stereo) [Example 006-116, 2-((5-(1H-pyrrol-3-yl)pyridin-3-yl)amino)-6-((cis-2-aminocyclohexyl)amino)-5-fluoronicotinamide]"
65 to 130,< 10,,,"NC(=O)c1cc(F)c(N[C@@H]2CCCC[C@@H]2N)nc1Nc1cccc(-n2ccnn2)c1 (relative stereo) [Example 006-122, 2-(3-(1H-1,2,3-triazol-1-yl)phenylamino)-6-((cis-2-aminocyclohexyl)amino)-5-fluoronicotinamide]"
130 to 200,< 10,,,"NC(=O)c1cc(F)c(N[C@@H]2CCCC[C@@H]2N)nc1Nc1cncc(-n2cccc2)c1 (relative stereo) [Example 006-123, 2-((5-(1H-pyrrol-1-yl)pyridin-3-yl)amino)-6-(cis-2-aminocyclohexylamino)-5-fluoronicotinamide]"
130 to 200,< 10,,,"NC(=O)c1cc(F)c(N[C@@H]2CCCC[C@@H]2N)nc1Nc1ccnc(-n2cccc2)c1 (relative stereo) [Example 006-124, 2-((2-(1H-pyrrol-1-yl)pyridin-4-yl)amino)-6-((cis-2-aminocyclohexyl)amino)-5-fluoronicotinamide]"
65 to 130,< 10,,,"NC(=O)c1cc(F)c(N[C@@H]2CCCC[C@@H]2N)nc1Nc1ccnc(-n2nccn2)c1 (relative stereo) [Example 006-125, 2-((2-(2H-1,2,3-triazol-2-yl)pyridin-4-yl)amino)-6-((cis-2-aminocyclohexyl)amino)-5-fluoronicotinamide]"
< 65,< 10,,,"NC(=O)c1cc(F)c(N[C@@H]2CCCC[C@@H]2N)nc1Nc1ccnc(-n2ccnn2)c1 (relative stereo) [Example 006-126, 2-((2-(1H-1,2,3-triazol-1-yl)pyridin-4-yl)amino)-6-((cis-2-aminocyclohexyl)amino)-5-fluoronicotinamide]"
130 to 200,10 to 50,,,"NC(=O)c1cc(F)c(N[C@@H]2CCCC[C@@H]2N)nc1Nc1ccnc(-n2ccnc2)c1 (relative stereo) [Example 006-128, 2-((2-(1-imidazol-1-yl)pyridin-4-yl)amino)-6-((cis-2-aminocyclohexyl)amino)-5-fluoronicotinamide]"
< 65,< 10,,,"NC(=O)c1cc(F)c(N[C@@H]2CCCC[C@@H]2N)nc1Nc1cncc(-n2cccn2)c1 (relative stereo) [Example 006-129, 2-((5-(1H-pyrazol-1-yl)pyridin-3-yl)amino)-6-((cis-2-aminocyclohexyl)amino)-5-fluoronicotinamide]"
65 to 130,10 to 50,,,"NC(=O)c1cc(F)c(N[C@@H]2CCCC[C@@H]2N)nc1Nc1ccnc(-n2cccn2)c1 (relative stereo) [Example 006-130, 2-((2-(1H-pyrazol-1-yl)pyridin-4-yl)amino)-6-((cis-2-aminocyclohexyl)amino)-5-fluoronicotinamide]"
65 to 130,< 10,,,"NC(=O)c1cc(F)c(N[C@@H]2CCCC[C@@H]2N)nc1Nc1ccnc(Cl)c1 (relative stereo) [Example 006-163, 6-((cis-2-aminocyclohexyl)amino)-2-((2-chloropyridin-4-yl)amino)-5-fluoronicotinamide]"
,,≤ 200,≤ 1000,"NC(=O)c1cc(F)c(N[C@@H]2CCCC[C@@H]2N)nc1Nc1cnc2ccccc2c1 (relative stereo) [Example 7, 6-(cis-2-aminocyclohexylamino)-5-fluoro-2-(quinolin-3-ylamino)nicotinamide]"
,,≤ 200,≤ 1000,"NC(=O)c1cc(F)c(N[C@@H]2CCCC[C@@H]2N)nc1Nc1cnc2ncccc2c1 (relative stereo) [Example 10-2, 6-(cis-2-aminocyclohexylamino)-5-fluoro-2-((1,8-naphthyridin-3-yl)amino)nicotinamide]"
130 to 200,10 to 50,,,"NC(=O)c1cc(F)c(N[C@@H]2CCCC[C@@H]2N)nc1Nc1cncc(NC(=O)c2ccccn2)c1 (relative stereo) [Example 027-020, N-(5-(6-(cis-2-aminocyclohexylamino)-3-carbamoyl-5-fluoropyridin-2-yl)aminopyridin-3-yl)picolinamide]"
130 to 200,< 10,,,"CN(C)C(=O)c1cc2cc(Nc3nc(N[C@@H]4CCCC[C@@H]4N)c(F)cc3C(N)=O)ccc2[nH]1 (relative stereo) [Example 029-016, 5-((6-(cis-2-aminocyclohexylamino)-3-carbamoyl-5-fluoropyridin-2-yl)amino)-N,N-dimethyl-1H-indole-2-carboxamide]"
